Legend:
[1] = Solubilities in water and 1 x PBS buffer (UV-vis); assay type: physicochemical; details: for Solubility in 1.0 ml PBS buffer: 1 × PBS buffer; for Solubility in 1.0 ml PBS buffer / Solubility in 1.0 ml water: 25° C.; for solubility comparison: both water or 1 x PBS buffer
Procedure: The molar extinction co-efficients of exemplary cholesterol lowering compounds were measured in 1 x PBS buffer. The compounds were first dissolved in dimethyl sulfoxide. Solutions with a 0.5 mg/ml concentration were then prepared in DMSO. These solutions were diluted further with 1 x PBS by 100-fold, resulting in solutions with a 5 ug/ml concentration. The resulted diluted solutions were then measured and scanned using a UV-vis spectrophotometer for ultra-violet absorbances between 240 nm to 400 nm, using a UV 96-well microplate. The maximum UV absorbances and corresponding wavelengths were recorded (Table 1). The absorbance values were subtracted by that of a blank, 1 x PBS buffer containing […]. The volume of the solutions for UV measurements was 300 ul and the depth of the solutions was 0.7 cm. The molar extinction co-efficients were then calculated based on formula
The solubilities of the exemplary cholesterol lowering compounds were measured in water and 1 x PBS buffer. The compounds were first stirred with water and 1 x PBS buffer individually at room temperature for 1 h. The suspensions were then centrifuged for 2 min. The top clear solutions were filtered through filter paper, resulting in mother liquids, which were centrifuged again and diluted with 1 x PBS buffer for 10-fold for the solubilities in water and 100-fold the solubilities in 1 x PBS buffer. The resulted solutions were measured using a UV-vis spectrophotometer for UV absorbances with the maximum absorbances. The values were subtracted by that of a blank, 1 x PBS buffer. The corrected absorbances were then used to calculate the corresponding concentrations using the formula (1) and extinction coefficients (Table 1) shown above. The individual concentrations were then used to calculate the solubilities in 1.0 mL of water and 1 x PBS buffer.
The compounds were dissolved in DMSO to either 50 mg/ml, 10 mg/ml or 5 mg/ml solutions, which were diluted to 0.5 mg/ml with DMSO. These solutions were then diluted to 5 ug/ml with 1 x PBS buffer. The resulted solutions were then measured in a UV-vis spectrophotometer for UV scanning from 240 nm to 400 nm at 25° C. The absorbance values were subtracted by that of a blank, 1 x PBS buffer containing DMSO. The total volume of the solutions was 300 uL and the path length for each well was 0.7 cm in a UV 96-well plate. The extinction coefficients of the compounds were then calculated based on molar concentrations and the corrected UV absorbances at the maximum absorption (Table 1).
The mixtures wer stirred for 1 h at room temperature, transferred to 1.5 mL Eppendorf tubes, and centrifuged for 2 min. The clear solutions were filtered through filter papers, affording clear solutions, which were centrifuged again for 2 min. The top clear solutions were diluted by 1 x PBS buffer by 10-fold for the solubilities in water and 100-fold for the solubilities in 1 x PBS buffer. The new clear solutions were then measured individually using a UV-vis spectrophotometer and a UV 96-well microplate. The absorbance values were subtracted by that of a blank, 1 x PBS buffer. Concentrations and solubilities of the compounds were then calculated using their extinct coefficients and the corrected UV absorbances at the maximum absorptions (Table 1).

Hepatic neutral lipid = assay: Neutral lipid staining (BODIPY 493/503) in iPSC-derived hepatocytes; assay type: cell-based, human; details: 72 hours; DL-1 2 μg/mL, CP-346086 20 nM
Procedure: H. Human iPSC derived hepatocytes were treated with DL-1 (2 μg/mL) and MTTP inhibitor CP-346086 (20 nM) for 72 hours. […] (A) Hepatic neutral lipid was determined by staining with 2 μM of BODIPYTM 493/503 for 15 mins and fixed with 4% PFA for microscopy. Nuclei were stained blue by DAPI. Scale bar=100 μm. […] Data are shown as mean±SEM of ten replicates (n=10); ***p<0.001.
K3 iPSC-derived hepatocytes (Day 20) were treated with or without 2 μg/mL of DL-1 or 20 nM of CP-346086 (Sigma) for 72 hours with daily medium change. At the time-point of interest, cells were treated with 2 μM of BODIPY® 493/503 staining solution (ThermoFisher) and 5 μg/mL of Hoechst 33342 (ThermoFisher) in PBS at 37 degrees for 15 minutes. Cells were washed with sterile PBS three times and then fixed with 4% PFA. Fluorescence images were taken using Bio-rad Zoeυ Fluorescent Cell Imager (Bio-Rad) and KEYENCE BZ-X800E Fluorescence Microscope (KEYENCE). Integrated fluorescent intensity was normalized by total cell counts, which is determined by DAPI staining.

[2] = test system: intracellular APOB, LAMP1, and SORTILIN; assay: Confocal immunofluorescence of intracellular APOB, LAMP1 and SORTILIN; assay type: cell-based, human; details: 48 μg/mL, 24 hours
Procedure: Human iPSC-derived hepatocytes (iPSC-Heps) were treated with 48 μg/mL of DL-9 for 24 hours. Immunofluorescence of intracellular APOB, LAMP1, and SORTILIN was detected by specific antibodies. […] Extracellular APOB was measured by ELISA analysis. APOB level was normalized to DMSO treated group (FIG. 13C). In FIG. 13D intracellular APOB was determined via western blot using a specific anti-APOB antibody. […] Data are shown as mean±SD of triplicates (n=3). Statistical analysis was performed using the student t-test.
For hepatic marker expression analysis, human iPSC-derived hepatocytes (Day 20) were treated with 2 μg/mL of DL-1 for 24 hours. Cells were fixed in 4% paraformaldehyde (PFA) and penetrated with 0.1% Triton-X-100. Cells were incubated with primary antibodies (ALB, 1:1000, Dako; HNF4-a, 1:1000, Santa Cruz) overnight at 4 degrees and then switched to secondary antibodies (Alexa Flour 488 goat anti-rabbit, 1:1000, Invitrogen; Alexa Flour 594 rabbit anti-mouse, 1:2000, Invitrogen). Images were taken using Bio-Rad Zoe™ Fluorescent Cell Imager (Bio-Rad). For intracellular APOB localization, iPSC-heps were treated with 0, 3, 12, 48 μg/mL of DL-9 for 24 hours, and cells were fixed in 4% PFA followed by 0.1% Triton-X-100 penetration. […] Integrated fluorescent intensity was normalized by total cell counts, which is determined by DAPI staining.

## Sc1nc(S)nc(Nc2cc(Cl)cc(Cl)c2)n1 (racemic) [DL-5, 6-[(3,5-dichlorophenyl)amino]-1,3,5-triazine-2,4-dithiol]
[1]
  Solubility in 1.0 ml PBS buffer: 61 µg
[1]; water
  Solubility in 1.0 ml water: 0.27 µg

## CC(C)(C)c1cc(Nc2nc(S)nc(S)n2)cc(C(C)(C)C)c1OCCO (racemic) [DL-27, 6-(3,5-di-tert-butyl-4-(2-hydroxyethoxy)-phenylamino)-1,3,5-triazine-2,4-dithiol]
[1]
  Solubility in 1.0 ml PBS buffer: 257 µg
  solubility comparison: better solubilities than that for DL-9
[1]; water
  Solubility in 1.0 ml water: 1.78 µg

## Oc1c(Cl)cc(Nc2nc(S)nc(S)n2)cc1Cl (racemic) [DL-28, 6-(3,5-dichloro-4-hydroxyphenylamino)-1,3,5-triazine-2,4-dithiol]
[1]
  Solubility in 1.0 ml PBS buffer: 348 µg
  solubility comparison: better solubilities than that for DL-9
[1]; water
  Solubility in 1.0 ml water: 1.25 µg

## Cc1cc(Nc2nc(S)nc(S)n2)cc(C)c1O (racemic) [DL-29, 6-(3,5-dimethyl-4-hydroxyphenylamino)-1,3,5-triazine-2,4-dithiol]
[1]
  Solubility in 1.0 ml PBS buffer: 686 µg
  solubility comparison: better solubilities than that for DL-9
[1]; water
  Solubility in 1.0 ml water: 2.22 µg

## CC(C)(C)c1cc(C(C)(C)C)c(Nc2nc(S)nc(S)n2)cc1O (racemic) [DL-30, 6-(2,4-di-tert-butyl-5-hydroxyphenylamino)-1,3,5-triazine-2,4-dithiol]
[1]
  Solubility in 1.0 ml PBS buffer: 459 µg
  solubility comparison: better solubilities than that for DL-9
[1]; water
  Solubility in 1.0 ml water: 1.35 µg

## CC(C)(C)c1cc(Nc2nc(S)nc(S)n2)c(O)c(C(C)(C)C)c1 (racemic) [DL-31, 6-(3,5-di-tert-butyl-2-hydroxyphenylamino)-1,3,5-triazine-2,4-dithiol]
[1]; 1 x PBS buffer
  solubility relative to that of DL-9 in 1 x PBS buffer: ~5 fold
[1]
  Solubility in 1.0 ml PBS buffer: 477 µg
  solubility comparison: better solubilities than that for DL-9
[1]; water
  solubility relative to that of DL-9 in water: about 4 fold
  Solubility in 1.0 ml water: 1.63 µg

## COc1cc(Nc2nc(S)nc(S)n2)cc(OC)c1O (racemic) [DL-32]
[1]
  Solubility in 1.0 ml PBS buffer: 786 µg
  solubility comparison: better solubilities than that for DL-9
[1]; water
  Solubility in 1.0 ml water: 2.01 µg

## O=C(Nc1ccc2c(c1)CCN(Cc1ncn[nH]1)C2)c1ccccc1-c1ccc(C(F)(F)F)cc1 [CP-346086, reference compound]
Hepatic neutral lipid
  hepatic lipid accumulation (neutral lipid level): significant increase of neutral lipid level

## CC(C)(C)c1cc(Nc2nc(S)nc(S)n2)cc(C(C)(C)C)c1O [DL-9, {4-[(3,5-di-tert-butyl-4-hydroxyphenyl)amino]-6-sulfanidyl-1,3,5-triazin-2-yl}sulfanide]
[1]
  Solubility in 1.0 ml PBS buffer: 91 µg
  solubility comparison: best solubility among the first three compounds
[1]; water
  Solubility in 1.0 ml water: 0.40 µg
[2]
  colocalization of APOB and SORTILIN: colocalization of APOB and SORTILIN

## C#CCOCCOCCOCCOCCOc1c(C(C)(C)C)cc(Nc2nc(S)nc(S)n2)cc1C(C)(C)C [DL-33, 6-(3,5-di-tert-butyl-4-(2-(2-(2-(2-(2-propyn-1-yloxy)ethoxy)ethyoxy)etoxy)ethoxy)-phenylamino)-1,3,5-triazine-2,4-dithiol]
[1]
  Solubility in 1.0 ml PBS buffer: 186 µg
  solubility comparison: better solubilities than that for DL-9
[1]; water
  Solubility in 1.0 ml water: 1.18 µg
